Reference: patent EP0628039B1, “2,3,4,5-TETRAHYDRO-1H-3-BENZAZEPINES AND PHARMACEUTICALLY ACCEPTABLE ACID ADDITION SALTS THEREOF” (NOVO NORDISK A/S, priority 1992, dated 1993)
Like-named read-outs stand apart in the source and are kept apart here.

Biological target: T1, dopamine D1 receptor (Rattus norvegicus, UniProt P18901)
T1 construct: homogenates from rat striatum; from tissue; host or cells: rat striatum homogenate
Experiment: Binding to dopamine D1 receptor in homogenates from rat striatum

T1 sequence (P18901 whole entry): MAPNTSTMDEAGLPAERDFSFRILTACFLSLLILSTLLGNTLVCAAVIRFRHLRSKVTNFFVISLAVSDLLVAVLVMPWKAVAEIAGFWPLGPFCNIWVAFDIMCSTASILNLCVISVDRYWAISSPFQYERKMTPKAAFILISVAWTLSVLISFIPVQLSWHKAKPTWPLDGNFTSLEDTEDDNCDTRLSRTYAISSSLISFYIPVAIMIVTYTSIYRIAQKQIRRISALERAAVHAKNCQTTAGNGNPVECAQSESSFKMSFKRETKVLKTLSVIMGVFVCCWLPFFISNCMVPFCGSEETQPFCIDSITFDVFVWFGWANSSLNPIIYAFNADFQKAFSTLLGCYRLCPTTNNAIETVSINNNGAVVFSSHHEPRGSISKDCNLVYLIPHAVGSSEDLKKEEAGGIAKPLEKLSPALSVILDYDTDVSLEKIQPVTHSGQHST

Structure (SMILES)	IC50 (homogenates from rat striatum, read-out: IC50 (nM) Dopamine D1 receptor) [nM]	IC50 [nM]
CN1CCc2cc(Cl)c(O)cc2C(c2c(Cl)c(Cl)cc3c2OCC3)C1 (single isomer, unassigned; (+)) [Example 3, (+)8-Chloro-5-(5,6-dichloro-2,3-dihydrobenzofuran-7-yl)-7-hydroxy-3-methyl-2,3,4,5-tetrahydro-1H-3-benzazepine]	0.9	–
CN1CCc2cc(Cl)c(O)cc2C(c2cc(Br)cc3c2OCC3)C1 (single isomer, unassigned; (+)) [Example 1, (+) 8-Chloro-5-(5-bromo-2,3-dihydrobenzofuran-7-yl)-7-hydroxy-3-methyl-2,3,4,5-tetrahydro-1H-3-benzazepine]	–	0.7
